The values that follow come from article PMC3913854 (Investigational New Drugs, 2013).

Each structure is given as a SMILES string. Entries after “also recorded” stand apart in the source; their conditions may differ.

In data set [1] the test system is brain metastases from HER2+ breast cancer. Conditions: monotherapy; N = 242; cited from earlier work.
The conditions of data set [2]: across an intact or a tumor-compromised BBB; cited from earlier work.
Data set [3] concerns patients with advanced cancer. The experiment in a line: phase 1 dose-escalation study: safety, MTD, DLTs, adverse events. It is filed as in vivo, human.
Data set [4] can be described thus: phase 1 study: plasma pharmacokinetics. It is filed as in vivo, human.
Data set [5] can be described thus: phase 1 study: CSF distribution and protein binding. It is filed as in vivo, human. Conditions: 400 mg BID; for Css,avg,u,CSF (steady-state average unbound CSF concentration): n = 5, calculated by Eq. 1.
The test system of data set [6] is advanced solid tumors. The experiment in a line: phase 1 study: tumor response. It is filed as in vivo, human. Conditions: for clinical benefit rate: CR, PR or SD durable for > 6 cycles.
The subject of data set [7] is mutant EGFR kinase (L858R and L861Q). As to conditions: preclinical, Nakayama et al., unpublished data, 2012; cited from earlier work.
Data set [8] concerns EGFR mutant NSCLC cell line HCC4006. Conditions: ref data on file; cited from earlier work.
Data set [9] has as its system P-glycoprotein (P-gp). As to conditions: in vitro transport studies; Nakayama et al., unpublished data, 2012; cited from earlier work.
Data set [10] has as its system breast cancer resistance protein (BCRP). As to conditions: in vitro transport studies; Nakayama et al., unpublished data, 2012; cited from earlier work.
The conditions of data set [11]: in vitro; Nakayama et al., unpublished data, 2012; cited from earlier work.
The conditions of data set [12]: rats; cited from earlier work.
The subject of data set [13] is patients with advanced cancers. Conditions: Japanese patients, N = 26, cited from earlier work.
Data set [14] has as its system malignant cell lines. Conditions: preclinical; cited from earlier work.
In data set [15] the test system is murine xenograft models. Conditions: cited from earlier work.

Turning to `CS(=O)(=O)CCNCc1ccc(-c2ccc3ncnc(Nc4ccc(OCc5cccc(F)c5)c(Cl)c4)c3c2)o1` [lapatinib, N-{3-chloro-4-[(3-fluorobenzyl)oxy]phenyl}-6-[5-({[2-(methylsulfonyl)ethyl]amino}methyl)-2-furyl]-4-quinazolinamine], in [1], the clinical benefit rate is on record as 43%, the objective response rate was 6% and the “patients with ≥ 50 % reduction in CNS tumor size” value is 8%. In addition, in [2], the “central nervous system (CNS) penetration” value is listed as “negligible”.

For orientation: Kp means the ratio of the level in a tissue or fluid to that in plasma or blood. Turning to `CC(C)(O)CC(=O)NCCn1ccc2ncnc(Nc3ccc(Oc4cccc(C(F)(F)F)c4)c(Cl)c3)c21` [TAK-285], the dose-limiting toxicities result in [3] (all cohorts, as summarised in abstract) was “diarrhea, hypokalemia, and fatigue”. The tolerability entry in data set [3] (at the MTD/RP2D of 400 mg BID) and in data set [13] was “generally well tolerated” in each case. The “dose-proportionality of steady-state exposures” value in data set [4] (50 mg BID to 500 mg BID) was “greater than dose-proportional”. Further, in [4] (400 mg BID), the “%CV of steady-state t½” value is on record as 11%. Besides, in data set [4] (10-fold increase in dose, 50 mg BID to 500 mg BID), the “increase in geometric mean steady-state AUC0-τ” value is 29 fold. The extent of accumulation result in data set [4] (MTD of 400 mg BID) is on record as “approximately 3 fold”. The compound further gave a pharmacokinetic steady-state achieved in [4] (based on similar trough concentrations on days 8, 15 and 21) of no more than 8 days. Further, the “time of maximum (peak) plasma concentration” value in [4] (oral, across cohorts, median) was in the range of 2 to 3 h. Further, in data set [4] (power model, 95 % CI, 1.26–1.59), the “slope of linear regression of log (Css,avg) versus log (Dose)” value is given as 1.43. For the same compound, in data set [4] (steady-state, MTD of 400 mg BID), the “%CV in AUC0-τ” value turned out to be 58%. Moreover, the “Css,avg,u,CSF (steady-state average unbound CSF concentration)” value was 1.54 ng/mL in data set [5] (geometric mean (%CV)) and 0.51 to 4.27 ng/mL in data set [5] (range of individual values). In [5] (human, CSF (unbound) / plasma (unbound), oral, Cu,CSF:Cu,p ratio, 3 to 4 h postdose day 15, n = 7, mean (%CV)), the Kp stood at 0.663. Moreover, the clinical benefit rate was 13% in [6] (RP2D cohort, 1 patient) and 9% in [6] (dose-escalation cohorts, 3 patients). In addition, the “stable disease (best response)” value worked out at 50% in data set [6] (RP2D cohort, 4 of 8 patients) and 27% in [6] (dose-escalation cohorts, 9 of 33 patients). Also, the “complete or partial response” value in data set [6] (all cohorts) is “No patient”. In addition, in data set [7], the “inhibition of mutant EGFR kinase activity” value is on record as “inhibits mutant EGFR kinase activity”. Also, in [8], the “inhibition of cell growth” value is listed as “did not inhibit the growth”. Further, the “substrate for BBB efflux transporter P-gp” value in [9] is recorded as “not a substrate”. The “substrate for BBB efflux transporter BCRP” value in data set [10] was “not a substrate”. The transcellular permeability result in data set [11] is reported as “high”. For the same compound, in data set [12], the “BBB penetration / brain distribution” value is reported as “crosses the intact BBB; also recorded: penetrates the BBB”. Besides, in data set [13] (parotid cancer), the partial response is 1 patient. The “maximum tolerated dose (MTD)” value in [13] (twice daily [BID]) is 300 mg. For the same compound, the “growth of malignant cell lines” value in [14] is “inhibits the growth”. In [15], the antitumor activity entry was “has antitumor activity”.
